Source: publication PMC7262777 (Journal of medicinal chemistry, 2020)
Each block holds one compound with its values, some of them ahead of it.

Tests used:
chemokine CXCR7 receptor = chemokine CXCR7 receptor (Homo sapiens, UniProt P25106); experiment: DiscoverX gpcrMAX panel, agonist mode, CXCR7; conditions: 10 μM
D3R [1] = biological target: T1, D3R (Homo sapiens, UniProt P35462); conditions: 10 μM
D4R = biological target: T2, D4R (Homo sapiens, UniProt P21917); experiment: DiscoverX gpcrMAX panel, agonist mode, D4R; conditions: 10 μM
T2 sequence (P21917 1-419): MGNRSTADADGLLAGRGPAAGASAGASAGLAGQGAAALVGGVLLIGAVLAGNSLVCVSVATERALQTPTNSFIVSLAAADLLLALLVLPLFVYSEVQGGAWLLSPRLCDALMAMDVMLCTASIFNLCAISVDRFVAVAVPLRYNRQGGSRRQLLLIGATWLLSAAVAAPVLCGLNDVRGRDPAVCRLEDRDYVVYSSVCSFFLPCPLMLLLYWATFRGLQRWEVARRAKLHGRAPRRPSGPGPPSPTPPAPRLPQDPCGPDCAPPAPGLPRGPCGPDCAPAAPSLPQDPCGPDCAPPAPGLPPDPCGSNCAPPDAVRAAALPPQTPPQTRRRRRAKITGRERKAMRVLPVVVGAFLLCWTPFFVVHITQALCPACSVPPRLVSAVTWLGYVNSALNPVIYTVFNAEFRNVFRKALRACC

D2R = D2R (Homo sapiens, UniProt P14416); experiment: β-arrestin recruitment DiscoverX PathHunter assay, agonist mode, D2R; format: cell-based
D2R, sequence (P14416 whole entry): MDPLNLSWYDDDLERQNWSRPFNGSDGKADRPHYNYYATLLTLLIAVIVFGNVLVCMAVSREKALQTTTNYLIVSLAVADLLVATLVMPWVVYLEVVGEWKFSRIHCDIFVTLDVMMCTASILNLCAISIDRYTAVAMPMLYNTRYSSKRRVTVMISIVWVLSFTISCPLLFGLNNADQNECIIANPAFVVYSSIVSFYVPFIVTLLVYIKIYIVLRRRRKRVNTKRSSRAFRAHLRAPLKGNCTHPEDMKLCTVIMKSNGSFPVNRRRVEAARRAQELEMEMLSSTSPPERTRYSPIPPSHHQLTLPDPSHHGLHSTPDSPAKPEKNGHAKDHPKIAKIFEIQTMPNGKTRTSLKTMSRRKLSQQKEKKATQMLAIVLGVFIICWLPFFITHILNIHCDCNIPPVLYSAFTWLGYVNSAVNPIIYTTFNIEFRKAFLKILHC

human D2RL = human D2RL (Homo sapiens, UniProt P14416); experiment: [3H]-methylspiperone competition binding, D2R membranes
human D2RL, sequence (P14416 whole entry): as above

[2] = test system: D3R-expressing dopaminergic neurons derived from human iPSCs; experiment: MTT cell viability, protection from 6-OHDA-induced cell death
ADRA2C = biological target: T3, ADRA2C (Homo sapiens, UniProt P18825); experiment: DiscoverX gpcrMAX panel, antagonist mode, ADRA2C; conditions: 10 μM, percent inhibition of EC80 reference agonist
T3 sequence (P18825 1-462): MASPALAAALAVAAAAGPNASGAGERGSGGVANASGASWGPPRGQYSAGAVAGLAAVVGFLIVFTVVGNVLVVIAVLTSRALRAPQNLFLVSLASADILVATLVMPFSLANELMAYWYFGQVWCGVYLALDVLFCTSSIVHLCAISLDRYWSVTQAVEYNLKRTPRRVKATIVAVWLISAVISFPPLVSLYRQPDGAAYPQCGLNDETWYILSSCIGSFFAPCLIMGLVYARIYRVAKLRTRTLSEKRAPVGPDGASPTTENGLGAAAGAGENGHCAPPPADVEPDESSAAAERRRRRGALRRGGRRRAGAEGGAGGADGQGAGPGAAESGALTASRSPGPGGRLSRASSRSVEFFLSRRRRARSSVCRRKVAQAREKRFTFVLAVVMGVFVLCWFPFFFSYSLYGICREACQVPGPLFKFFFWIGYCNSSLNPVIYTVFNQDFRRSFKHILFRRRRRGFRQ

HTR2A = HTR2A (Homo sapiens, UniProt P28223); experiment: DiscoverX gpcrMAX panel, antagonist mode, HTR2A; format: cell-based; conditions: 10 μM, percent inhibition of EC80 reference agonist
HTR2A, sequence (P28223 whole entry): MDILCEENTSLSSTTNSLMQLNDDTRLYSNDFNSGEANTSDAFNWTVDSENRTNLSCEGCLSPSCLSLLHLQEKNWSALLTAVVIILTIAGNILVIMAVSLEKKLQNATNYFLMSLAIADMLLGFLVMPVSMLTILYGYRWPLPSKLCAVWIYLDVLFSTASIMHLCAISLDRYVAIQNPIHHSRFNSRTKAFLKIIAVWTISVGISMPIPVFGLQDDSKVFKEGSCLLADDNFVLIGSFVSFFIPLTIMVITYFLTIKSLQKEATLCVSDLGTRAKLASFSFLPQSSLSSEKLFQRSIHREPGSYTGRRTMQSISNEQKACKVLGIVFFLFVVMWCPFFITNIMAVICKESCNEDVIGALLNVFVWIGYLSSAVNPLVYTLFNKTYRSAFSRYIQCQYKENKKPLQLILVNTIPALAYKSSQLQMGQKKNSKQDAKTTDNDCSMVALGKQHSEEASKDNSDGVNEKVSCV

[3] = test system: all other receptor subtypes (D1R, D2R, D4R, D5R); format: cell-based; conditions: β-arrestin recruitment
[4] = biological target: D2R (short and long isoforms) (Homo sapiens, UniProt P14416); experiment: DiscoverX gpcrMAX panel, agonist mode, D2R; conditions: 10 μM
D2R (short and long isoforms), sequence (P14416 1-414 isoform P14416-2): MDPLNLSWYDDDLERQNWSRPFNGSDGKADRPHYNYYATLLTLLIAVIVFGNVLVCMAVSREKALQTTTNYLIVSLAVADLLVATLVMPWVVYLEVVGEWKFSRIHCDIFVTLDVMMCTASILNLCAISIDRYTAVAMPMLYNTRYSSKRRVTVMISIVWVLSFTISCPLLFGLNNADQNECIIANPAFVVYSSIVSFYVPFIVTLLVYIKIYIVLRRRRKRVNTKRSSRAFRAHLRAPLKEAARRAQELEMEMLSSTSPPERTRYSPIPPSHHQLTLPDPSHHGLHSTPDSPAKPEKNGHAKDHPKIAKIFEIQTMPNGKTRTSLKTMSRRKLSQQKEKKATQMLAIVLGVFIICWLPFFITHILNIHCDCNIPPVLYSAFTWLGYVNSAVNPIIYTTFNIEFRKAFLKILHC

human 5-HT2B = human 5-HT2B (Homo sapiens, UniProt P41595); experiment: Inositol 1-phosphate; format: cell-based
human 5-HT2B, sequence (P41595 whole entry): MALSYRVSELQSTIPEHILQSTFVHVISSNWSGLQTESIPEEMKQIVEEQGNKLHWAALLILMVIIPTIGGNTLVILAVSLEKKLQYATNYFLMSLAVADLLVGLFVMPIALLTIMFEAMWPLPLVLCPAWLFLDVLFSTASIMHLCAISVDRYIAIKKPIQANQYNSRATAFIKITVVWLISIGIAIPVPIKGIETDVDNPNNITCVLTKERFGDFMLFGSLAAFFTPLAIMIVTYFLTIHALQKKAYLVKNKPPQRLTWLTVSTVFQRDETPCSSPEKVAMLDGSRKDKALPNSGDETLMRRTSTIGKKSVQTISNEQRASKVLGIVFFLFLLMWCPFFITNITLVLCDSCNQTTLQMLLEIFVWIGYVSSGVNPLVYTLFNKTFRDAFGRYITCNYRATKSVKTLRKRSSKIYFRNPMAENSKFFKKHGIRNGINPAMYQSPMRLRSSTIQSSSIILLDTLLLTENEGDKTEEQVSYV

pKa titration = format: physicochemical
bacteria = experiment: Ames reverse mutation assay
D3R [5] = biological target: T1, D3R; experiment: β-arrestin recruitment DiscoverX PathHunter assay, agonist mode, D3R; format: cell-based
168 known GPCRs = conditions: 10 μM
[6] = biological target: alpha2B-adrenergic receptor (Homo sapiens, UniProt P18089); conditions: 10 μM
alpha2B-adrenergic receptor, sequence (P18089 whole entry): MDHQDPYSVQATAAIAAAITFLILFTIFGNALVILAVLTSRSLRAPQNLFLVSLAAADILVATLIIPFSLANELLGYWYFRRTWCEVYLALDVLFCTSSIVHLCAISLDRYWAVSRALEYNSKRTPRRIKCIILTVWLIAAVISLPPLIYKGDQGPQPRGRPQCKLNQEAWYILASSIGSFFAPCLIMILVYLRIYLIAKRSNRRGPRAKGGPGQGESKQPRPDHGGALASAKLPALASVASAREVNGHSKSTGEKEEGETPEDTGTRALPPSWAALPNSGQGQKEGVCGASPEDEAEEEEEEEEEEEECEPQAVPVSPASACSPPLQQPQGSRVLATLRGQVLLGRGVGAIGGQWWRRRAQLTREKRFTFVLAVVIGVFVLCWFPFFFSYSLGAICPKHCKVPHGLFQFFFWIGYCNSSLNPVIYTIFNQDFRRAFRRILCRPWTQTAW

T1 sequence (P35462 whole entry): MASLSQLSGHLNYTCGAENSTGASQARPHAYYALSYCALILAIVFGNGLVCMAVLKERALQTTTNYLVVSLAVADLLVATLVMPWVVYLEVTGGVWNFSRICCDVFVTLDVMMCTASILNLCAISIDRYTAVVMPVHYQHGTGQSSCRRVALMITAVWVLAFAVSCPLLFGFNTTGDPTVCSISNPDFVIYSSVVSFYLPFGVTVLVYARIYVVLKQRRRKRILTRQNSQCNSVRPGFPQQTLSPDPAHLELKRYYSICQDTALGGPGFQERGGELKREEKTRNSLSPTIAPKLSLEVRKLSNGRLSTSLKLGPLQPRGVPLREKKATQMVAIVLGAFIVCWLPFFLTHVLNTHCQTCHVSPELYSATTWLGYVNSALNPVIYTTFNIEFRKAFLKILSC
chemokine CXCR7 receptor, sequence (P25106 whole entry): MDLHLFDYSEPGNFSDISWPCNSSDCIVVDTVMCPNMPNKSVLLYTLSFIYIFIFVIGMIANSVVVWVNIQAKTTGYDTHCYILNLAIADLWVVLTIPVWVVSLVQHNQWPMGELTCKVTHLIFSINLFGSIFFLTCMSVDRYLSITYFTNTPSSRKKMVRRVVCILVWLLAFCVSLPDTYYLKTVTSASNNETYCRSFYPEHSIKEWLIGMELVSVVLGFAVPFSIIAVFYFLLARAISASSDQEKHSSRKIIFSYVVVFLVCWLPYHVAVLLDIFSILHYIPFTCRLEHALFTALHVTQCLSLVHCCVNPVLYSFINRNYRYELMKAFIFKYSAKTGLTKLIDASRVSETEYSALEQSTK

Compound: COc1ccc(OCCN2CCN(C(=O)c3ccc(OC)cc3)CC2)cc1 [Compound 1, (4-(2-(4-Methoxyphenoxy)ethyl)piperazin-1-yl)(4-methoxyphenyl)methanone]
- D2R agonist activity EC50 (D2R; β-arrestin recruitment (DiscoverX), agonist mode): No measurable agonist activity
- IC50 for inhibiting [3H]-methylspiperone binding to the D2R (human D2RL): no measurable ability to displace binding

Compound: NCCc1cc(O)c(O)cc1O [Compound 6-OHDA, 6-hydroxydopamine]
- reduction of cell viability ([2]; 30 μM, 24 hr, no drug (vehicle)): 62 ± 8%

Compound: COc1ccc(OCCN2CCN(C(=O)c3cc4ccccc4[nH]3)CC2)cc1 [Compound 20, (1H-Indol-2-yl)(4-(2-(4-methoxyphenoxy)ethyl)piperazin-1-yl)methanone]
- partial antagonist activity, ADRA2C (ADRA2C): 36%
- partial antagonist activity, HTR2A (HTR2A): 37%
- agonist efficacy at other dopamine receptor subtypes [3]: minimal agonist efficacy
- agonist activity, D2R (gpcrMAX) [4]: small, but measurable agonist responses
- 5-HT2B agonist activity (IP1 accumulation) (human 5-HT2B; 10 μM): no agonist activity
- pKa (pKa titration): 8.62
- AMES reverse mutation assay (bacteria): no toxicity was observed

Compound: COc1ccc2cc(C(=O)N3CCN(CCOc4cccnc4)CC3)[nH]c2c1 [Compound 58, (6-Methoxy-1H-indol-2-yl)(4-(2-(pyridin-3-yloxy)ethyl)piperazin-1-yl)methanone]
- D3R agonist activity EC50 (D3R [5]): single-digit nanomolar range

Compound: COc1ccc2[nH]c(C(=O)N3CCN(CCOc4cccnc4)CC3)cc2c1 [Compound 59, (5-Methoxy-1H-indol-2-yl)(4-(2-(pyridin-3-yloxy)ethyl)piperazin-1-yl)methanone]
- D2R agonist activity Emax (D2R; percentage of the maximum dopamine response): 97 ± 2.8 % control

Compound: CCCN[C@H]1CCc2nc(N)sc2C1 [Pramipexole, pramipexole]
- antagonist activity at any of the GPCRs tested (168 known GPCRs): did not exhibit antagonist activity
- agonist activity, alpha2B-adrenergic receptor (gpcrMAX) [6]: partial agonist activity
- agonist activity, D2R (gpcrMAX) [4]: full agonist activity
- concentration giving significant reduction in 6-OHDA-induced cell death ([2]; 24 h pretreatment, 30 μM 6-OHDA 24 h, MTT): 500 nM
- agonist activity, D3R (gpcrMAX) (D3R [1]): full agonist activity

Continued, values first:

- agonist activity, CXCR7 (gpcrMAX) (chemokine CXCR7 receptor): partial agonist activities
- agonist activity, D3R (gpcrMAX) (D3R [1]): full agonist
- agonist activity, D4R (gpcrMAX) (D4R): partial agonist activities
Compound: CCCN(CC[C@]1(O)C[C@H](NC(=O)c2ccc3ccccc3c2)C1)[C@H]1CCc2nc(N)sc2C1 [CJ-1639]

- IC50 (human 5-HT2B): 13 nM
Compound: Cn1ccc2cc3c(cc21)CCN3C(=O)Nc1cccnc1 [SB206553, reference compound]
